Experimental data: paper PMC12400508 (RSC Advances, 2025)
≈ marks a conversion by molar mass, not a printed value.

What was measured:
Format in all cases: cell-based, Mycobacterium tuberculosis
mc^26230_R1 = tested on: mc^26230_R1
mc^26230_R3 = tested on: mc^26230_R3
[1] = tested on: mc^26230 overexpressing InhA (pMV261_inhA); assay: microbe, parasite or virus in culture; conditions: for fold change between the strain harboring the empty plasmid pMV261 and the strain overexpressing InhA: MIC pMV261_inhA / MIC pMV261; for MIC: Mycobacterium tuberculosis, read-out: MIC, pMV261_inhA

SMILES | MIC, mc^26230_R1 (mc^26230_R1) [µg/mL] | MIC, mc^26230_R3 (mc^26230_R3) [µg/mL] | fold change between the strain harboring the empty plasmid pMV261 and the strain overexpressing InhA [1] [fold] | MIC [1] [µg/mL] | fold increase of MIC in the KatG mutated strains versus parental strain (mc^26230_R1) [fold] | MIC, pMV261_inhA [1]
NNC(=O)c1ccncc1 [INH, isoniazid, reference compound] | >10 | >10 | 16 | 1.25 (≈ 9.11 µM) | – | –
O=C1N=C(NNC(=O)c2ccncc2)S/C1=C\c1ccc(Cl)cc1 [9n] | 100 (≈ 279 µM) | 100 (≈ 279 µM) | 4 | 100 (≈ 279 µM) | 8 | –
CO[C@H]1/C=C/O[C@@]2(C)Oc3c(C)c(O)c4c(O)c(c(/C=N/N5CCN(C)CC5)c(O)c4c3C2=O)NC(=O)/C(C)=C\C=C\[C@H](C)[C@H](O)[C@@H](C)[C@@H](O)[C@@H](C)[C@H](OC(C)=O)[C@@H]1C [RIF, reference compound] | – | – | 1 | 0.039 (≈ 0.0474 µM) | – | unaffected
O=C1N=C(NNC(=O)c2ccncc2)S/C1=C\c1ccccc1F [9l] | 100 (≈ 292 µM) | 100 (≈ 292 µM) | – | – | 4 | –
O=C1N=C(NNC(=O)c2ccncc2)S/C1=C\c1ccccc1Cl [9p] | 100 (≈ 279 µM) | 100 (≈ 279 µM) | – | – | 4 | –
O=C1N=C(NNC(=O)c2ccncc2)S/C1=C\c1ccc(F)cc1 [9j] | 100 (≈ 292 µM) | 100 (≈ 292 µM) | 8 | 100 (≈ 292 µM) | 8 | –
Cc1ccccc1/C=C1\SC(NNC(=O)c2ccncc2)=NC1=O [9d] | 50 (≈ 148 µM) | 50 (≈ 148 µM) | 16 | 50 (≈ 148 µM) | 32 | –
